Source: PMC3744530, “CTA095, a Novel Etk and Src Dual Inhibitor, Induces Apoptosis in Prostate Cancer Cells and Overcomes Resistance to Src Inhibitors” (PLoS ONE, 2013)

What was measured:
Format in all cases: cell-based, human
[1] = system: caspase 9 in PC3 cells; test: Caspase 9 activation (Western blot); conditions: PC3, 0–10 μM, 24 h
Experimental: For caspase 3/7 activities, PC3 cells were seeded at 5,000 cells/well in 96-well plate overnight. Then the cells were treated with 0–10 μM CTA095 for 24 h. Caspase-3/7 activities were measured using the Apo-ONE Homogeneous Caspase-3/7 Assay kit (Promega, Madison, WI) according to the manufacturer's instruction. For caspase 9 activity, PC3 cells were seeded in 10 mm tissue culture plate and grew to 50% confluence. Cells were then treated with 0–10 μM CTA095 for 24 h. Cells were harvested and caspase 9 activity was measured using a Western blot with an anti-caspase 9 antibody.
Figure 7 Induction of apoptosis of PC3 cells following treatment with CTA095. PC3 cells were seeded at 10^6 cells/ml (2 ml) in a 6-well plate overnight and then treated with CTA095 at the indicated concentrations for 24 h. Cell cycle arrest was analyzed using PI staining (A). Apoptosis was analyzed using Annexin-V FITC apoptosis detection kit (B). Caspase 9 activation was measured using western blot (D). For caspase 3/7 activity, PC3 cells were seeded at 5000 cells/well in 96 well plate overnight and treated with CTA095 at 0–10 μM for 24 h. Caspase-3/7 activities were measured using the Apo-ONE Homogeneous Caspase-3/7 Assay kit (Promega, Madison, WI) according to the manufacturer's instruction. Columns, mean; bars, standard deviation, n = 3. […]

[2] = system: PC3 cells; test: PC3 cell wound healing assay; conditions: 5 μM, after 48 h
Experimental: PC3 cells were grown in 6-well plate to 60% confluency. Then wounds were made using a tip and treated with CTA095 (0 and 5 μM). Cell migration (wound healing) was visualized under microscope at the indicated times.
Figure 8 Inhibition of tube formation and cell migration by CTA095. Inhibition of vascular tube formation of HUVEC endothelial cells (A) and inhibition of migration (wound healing) of PC3 human prostate cancer cells (B) by CTA095. (A) HUVEC cells were seed on mitrogel and treated with CTA095 (0 and 5 μM) for 6 h. Vascular tube formation was visualized using microscope. (B) PC3 cells were grown in 6-well plate to 60% confluency. Then wounds were made and treated with CTA095 (0 and 5 μM). Cell migration (wound healing) was visualized under microscope at the indicated times.

[3] = system: PC3-AZD20 cells; test: Annexin-V FITC apoptosis in Src inhibitor resistant cells; conditions: 10 μM
Experimental: PC3-AZD20 cells were seeded at 10^6 cells/well in 6 well plates overnight. The cells were treated with AZD0530 or CTA095 at 10 μM. Apoptosis was analyzed using Annexin-V FITC apoptosis detection kit. The mRNA levels of Myc and BCL2 were measured using real-time PCR. pEtk, Etk, pSrc, Src, pStat3, Stat3, Myc and BCL2 levels were measured using the corresponding antibodies through a Western blot.
Figure 12 CTA095 induces apoptosis in Src inhibitor resistant prostate cancer cells through Myc and BCL2 inhibition. PC3-AZD20 (PC3 cell resistant to 20 μM AZD0530) cells were seeded at 10^6 cells/well in 6 well plates overnight. The cells were treated with AZD0530 or CTA095 at 10 μM. Apoptosis was analyzed using Annexin-V FITC apoptosis detection kit (A). The mRNA levels of Myc and BCL2 were measured using real-time PCR (B). pEtk, Etk, pSrc, Src, pStat3, Stat3, Myc and BCL2 levels were measured using the corresponding antibodies through Western blot (C). Columns, mean; bars, standard deviation, n = 3.

For `O=c1[nH]c2cc3nc(-c4ccc5oc6ccccc6c5c4)n(CCCN4CCCCC4)c3cc2nc1-c1ccccc1` [CTA095, 2-(dibenzo[b,d]furan-2-yl)-7-phenyl-1-(3-(piperidin-1-yl)propyl)-1H-imidazo[4,5-g]quinoxalin-6(5H)-one], the “activation of caspase 9” value [1] was “dose dependent activation”, the “wound healing of PC3 cells” value [2] was “greatly inhibited” and the “apoptosis in PC3-AZD20 cells” value [3] was “Massive apoptosis was induced”.
